Assay results from the supplement of paper PMC13380429.

Assays:
Conditions in all cases: 72 h
Caco-2 [1] = assay: drug sensitivity score (DSS) for viability; higher = more toxic; extreme values may be limits of the assay
HepG2 [2] = assay: as above
Vero E6 [3] = assay: as above
Caco-2 [4] = assay: cell viability relative to DMSO; higher = less toxic
HepG2 [5] = assay: as above
Vero E6 [6] = assay: as above
Caco-2 [7] = assay: relative viability EC50 (midpoint between 100% and the lowest measured viability); higher = less toxic
HepG2 [8] = assay: as above
Vero E6 [9] = assay: as above
U2OS [10] = assay: drug sensitivity score (DSS) for viability; higher = more toxic; extreme values may be limits of the assay
U2OS [11] = assay: cell viability relative to DMSO; higher = less toxic
U2OS [12] = assay: relative viability EC50 (midpoint between 100% and the lowest measured viability); higher = less toxic
Calu-3 [13] = assay: drug sensitivity score (DSS) for viability; higher = more toxic; extreme values may be limits of the assay
Calu-3 [14] = assay: cell viability relative to DMSO; higher = less toxic
Calu-3 [15] = assay: relative viability EC50 (midpoint between 100% and the lowest measured viability); higher = less toxic

CC(C)OC(=O)CNC(=O)[C@H](CS)NC(=O)CC[C@H](N)C(=O)O [glutathione-monoisopropyl-ester]
drug sensitivity score (Caco-2 [1]): 0
drug sensitivity score (HepG2 [2]): 0
drug sensitivity score (Vero E6 [3]): 0
cell viability (Caco-2 [4]; 1 nM): 95.7%
cell viability (Caco-2 [4]; 10 nM): 103%
cell viability (Caco-2 [4]; 100 nM): 96.2%
cell viability (Caco-2 [4]; 1000 nM): 103%
cell viability (Caco-2 [4]; 10000 nM): 96.3%
cell viability (HepG2 [5]; 1 nM): 102%
cell viability (HepG2 [5]; 10 nM): 103%
cell viability (HepG2 [5]; 100 nM): 105%
cell viability (HepG2 [5]; 1000 nM): 101%
cell viability (HepG2 [5]; 10000 nM): 97.3%
cell viability (Vero E6 [6]; 1 nM): 99.3%
cell viability (Vero E6 [6]; 10 nM): 103%
cell viability (Vero E6 [6]; 100 nM): 99.5%
cell viability (Vero E6 [6]; 1000 nM): 99.7%
cell viability (Vero E6 [6]; 10000 nM): 100%
relative viability EC50 (Caco-2 [7]): > 10 µM
relative viability EC50 (HepG2 [8]): > 10 µM
relative viability EC50 (Vero E6 [9]): > 10 µM

NC(=O)CCCCC1CCSS1 (stereo unspecified) [lipoamide]
drug sensitivity score (U2OS [10]): 0
drug sensitivity score (Caco-2 [1]): 0
drug sensitivity score (HepG2 [2]): 0
drug sensitivity score (Vero E6 [3]): 0
cell viability (U2OS [11]; 1 nM): 102%
cell viability (U2OS [11]; 10 nM): 99.8%
cell viability (U2OS [11]; 100 nM): 99.1%
cell viability (U2OS [11]; 1000 nM): 98.2%
cell viability (U2OS [11]; 10000 nM): 98%
cell viability (Caco-2 [4]; 1 nM): 110%
cell viability (Caco-2 [4]; 10 nM): 90.3%
cell viability (Caco-2 [4]; 100 nM): 92.4%
cell viability (Caco-2 [4]; 1000 nM): 97.9%
cell viability (Caco-2 [4]; 10000 nM): 102%
cell viability (HepG2 [5]; 1 nM): 88.4%
cell viability (HepG2 [5]; 10 nM): 108%
cell viability (HepG2 [5]; 100 nM): 104%
cell viability (HepG2 [5]; 1000 nM): 102%
cell viability (HepG2 [5]; 10000 nM): 90.9%
cell viability (Vero E6 [6]; 1 nM): 103%
cell viability (Vero E6 [6]; 10 nM): 99.2%
cell viability (Vero E6 [6]; 100 nM): 102%
cell viability (Vero E6 [6]; 1000 nM): 106%
cell viability (Vero E6 [6]; 10000 nM): 99.2%
relative viability EC50 (U2OS [12]): > 10 µM
relative viability EC50 (Caco-2 [7]): > 10 µM
relative viability EC50 (HepG2 [8]): > 10 µM
relative viability EC50 (Vero E6 [9]): > 10 µM

NC(=O)CN1C=CCC(C(N)=O)=C1 [caricotamide]
drug sensitivity score (Caco-2 [1]): 0
drug sensitivity score (HepG2 [2]): 0
drug sensitivity score (Vero E6 [3]): 0
cell viability (Caco-2 [4]; 1 nM): 113%
cell viability (Caco-2 [4]; 10 nM): 103%
cell viability (Caco-2 [4]; 100 nM): 103%
cell viability (Caco-2 [4]; 1000 nM): 97.7%
cell viability (Caco-2 [4]; 10000 nM): 104%
cell viability (HepG2 [5]; 1 nM): 93.2%
cell viability (HepG2 [5]; 10 nM): 103%
cell viability (HepG2 [5]; 100 nM): 104%
cell viability (HepG2 [5]; 1000 nM): 116%
cell viability (HepG2 [5]; 10000 nM): 106%
cell viability (Vero E6 [6]; 1 nM): 101%
cell viability (Vero E6 [6]; 10 nM): 95.4%
cell viability (Vero E6 [6]; 100 nM): 99.5%
cell viability (Vero E6 [6]; 1000 nM): 99%
cell viability (Vero E6 [6]; 10000 nM): 101%
relative viability EC50 (Caco-2 [7]): > 10 µM
relative viability EC50 (HepG2 [8]): > 10 µM
relative viability EC50 (Vero E6 [9]): > 10 µM

Cc1nc(C#Cc2ccnc(Cl)c2)c(C)n1-c1ccc(F)cc1 [basimglurant]
drug sensitivity score (U2OS [10]): 0
drug sensitivity score (Caco-2 [1]): 3
drug sensitivity score (HepG2 [2]): 1.4
drug sensitivity score (Calu-3 [13]): 0
drug sensitivity score (Vero E6 [3]): 0
cell viability (U2OS [11]; 1 nM): 91.4%
cell viability (U2OS [11]; 10 nM): 96.1%
cell viability (U2OS [11]; 100 nM): 101%
cell viability (U2OS [11]; 1000 nM): 91.9%
cell viability (U2OS [11]; 10000 nM): 93.2%
cell viability (Caco-2 [4]; 1 nM): 101%
cell viability (Caco-2 [4]; 10 nM): 95.2%
cell viability (Caco-2 [4]; 100 nM): 101%
cell viability (Caco-2 [4]; 1000 nM): 90.5%
cell viability (Caco-2 [4]; 10000 nM): 66.5%
cell viability (HepG2 [5]; 1 nM): 104%
cell viability (HepG2 [5]; 10 nM): 99.5%
cell viability (HepG2 [5]; 100 nM): 102%
cell viability (HepG2 [5]; 1000 nM): 95.3%
cell viability (HepG2 [5]; 10000 nM): 77.4%
cell viability (Calu-3 [14]; 1 nM): 88.4%
cell viability (Calu-3 [14]; 10 nM): 90.6%
cell viability (Calu-3 [14]; 100 nM): 92.2%
cell viability (Calu-3 [14]; 1000 nM): 92.4%
cell viability (Calu-3 [14]; 10000 nM): 95.8%
cell viability (Vero E6 [6]; 1 nM): 106%
cell viability (Vero E6 [6]; 10 nM): 101%
cell viability (Vero E6 [6]; 100 nM): 96.9%
cell viability (Vero E6 [6]; 1000 nM): 102%
cell viability (Vero E6 [6]; 10000 nM): 91.3%
relative viability EC50 (U2OS [12]): > 10 µM
relative viability EC50 (HepG2 [8]): > 10 µM
relative viability EC50 (Calu-3 [15]): > 10 µM
relative viability EC50 (Vero E6 [9]): > 10 µM

Oc1cc2c(cc1O)[C@H]1c3ccccc3CN[C@@H]1CC2 (racemic) [dihydrexidine]
drug sensitivity score (U2OS [10]): 0
drug sensitivity score (Caco-2 [1]): 0
drug sensitivity score (HepG2 [2]): 0
drug sensitivity score (Vero E6 [3]): 0
cell viability (U2OS [11]; 1 nM): 101%
cell viability (U2OS [11]; 10 nM): 93.2%
cell viability (U2OS [11]; 100 nM): 104%
cell viability (U2OS [11]; 1000 nM): 96.9%
cell viability (U2OS [11]; 10000 nM): 104%
cell viability (Caco-2 [4]; 1 nM): 102%
cell viability (Caco-2 [4]; 10 nM): 97.7%
cell viability (Caco-2 [4]; 100 nM): 99.6%
cell viability (Caco-2 [4]; 1000 nM): 92.6%
cell viability (Caco-2 [4]; 10000 nM): 97.9%
cell viability (HepG2 [5]; 1 nM): 83.4%
cell viability (HepG2 [5]; 10 nM): 95.8%
cell viability (HepG2 [5]; 100 nM): 90.9%
cell viability (HepG2 [5]; 1000 nM): 93.2%
cell viability (HepG2 [5]; 10000 nM): 82.1%
cell viability (Vero E6 [6]; 1 nM): 96.7%
cell viability (Vero E6 [6]; 10 nM): 96.7%
cell viability (Vero E6 [6]; 100 nM): 96.8%
cell viability (Vero E6 [6]; 1000 nM): 97.6%
cell viability (Vero E6 [6]; 10000 nM): 104%
relative viability EC50 (U2OS [12]): > 10 µM
relative viability EC50 (Caco-2 [7]): > 10 µM
relative viability EC50 (HepG2 [8]): > 10 µM
relative viability EC50 (Vero E6 [9]): > 10 µM

O=C1C[C@@H]2OCC=C3CN4CC[C@]56c7ccccc7N1[C@H]5[C@H]2[C@H]3C[C@H]46 [strychnine]
drug sensitivity score (U2OS [10]): 0
drug sensitivity score (Caco-2 [1]): 3.7
drug sensitivity score (HepG2 [2]): 1.7
drug sensitivity score (Vero E6 [3]): 0.9
cell viability (U2OS [11]; 1 nM): 97.2%
cell viability (U2OS [11]; 10 nM): 101%
cell viability (U2OS [11]; 100 nM): 96.8%
cell viability (U2OS [11]; 1000 nM): 103%
cell viability (U2OS [11]; 10000 nM): 95.8%
cell viability (Caco-2 [4]; 1 nM): 97.8%
cell viability (Caco-2 [4]; 10 nM): 91.1%
cell viability (Caco-2 [4]; 100 nM): 83%
cell viability (Caco-2 [4]; 1000 nM): 85.6%
cell viability (Caco-2 [4]; 10000 nM): 90.2%
cell viability (HepG2 [5]; 1 nM): 113%
cell viability (HepG2 [5]; 10 nM): 93.7%
cell viability (HepG2 [5]; 100 nM): 106%
cell viability (HepG2 [5]; 1000 nM): 83.1%
cell viability (HepG2 [5]; 10000 nM): 96.3%
cell viability (Vero E6 [6]; 1 nM): 102%
cell viability (Vero E6 [6]; 10 nM): 98.8%
cell viability (Vero E6 [6]; 100 nM): 98.3%
cell viability (Vero E6 [6]; 1000 nM): 87.1%
cell viability (Vero E6 [6]; 10000 nM): 88.7%
relative viability EC50 (U2OS [12]): > 10 µM
relative viability EC50 (Caco-2 [7]): > 10 µM
relative viability EC50 (HepG2 [8]): > 10 µM
relative viability EC50 (Vero E6 [9]): > 10 µM

Nc1ncnc2c1c(-c1ccc(Oc3ccccc3)cc1)nn2C1CCCC1
drug sensitivity score (U2OS [10]): 1.1
drug sensitivity score (Caco-2 [1]): 2.3
drug sensitivity score (HepG2 [2]): 1
drug sensitivity score (Calu-3 [13]): 3
drug sensitivity score (Vero E6 [3]): 0.3
cell viability (U2OS [11]; 1 nM): 102%
cell viability (U2OS [11]; 10 nM): 97.3%
cell viability (U2OS [11]; 100 nM): 101%
cell viability (U2OS [11]; 1000 nM): 97.4%
cell viability (U2OS [11]; 10000 nM): 78.7%
cell viability (Caco-2 [4]; 1 nM): 109%
cell viability (Caco-2 [4]; 10 nM): 96.7%
cell viability (Caco-2 [4]; 100 nM): 95.7%
cell viability (Caco-2 [4]; 1000 nM): 93.6%
cell viability (Caco-2 [4]; 10000 nM): 70.1%
cell viability (HepG2 [5]; 1 nM): 89.7%
cell viability (HepG2 [5]; 10 nM): 101%
cell viability (HepG2 [5]; 100 nM): 92%
cell viability (HepG2 [5]; 1000 nM): 88.3%
cell viability (HepG2 [5]; 10000 nM): 82%
cell viability (Calu-3 [14]; 1 nM): 105%
cell viability (Calu-3 [14]; 10 nM): 104%
cell viability (Calu-3 [14]; 100 nM): 99%
cell viability (Calu-3 [14]; 1000 nM): 95.8%
cell viability (Calu-3 [14]; 10000 nM): 54.5%
cell viability (Vero E6 [6]; 1 nM): 94.2%
cell viability (Vero E6 [6]; 10 nM): 100%
cell viability (Vero E6 [6]; 100 nM): 97.1%
cell viability (Vero E6 [6]; 1000 nM): 90.8%
cell viability (Vero E6 [6]; 10000 nM): 87.1%
relative viability EC50 (U2OS [12]): > 10 µM
relative viability EC50 (HepG2 [8]): > 10 µM
relative viability EC50 (Vero E6 [9]): > 10 µM

O=C1c2ccccc2-n2c1nc1ccccc1c2=O [tryptanthrin]
drug sensitivity score (U2OS [10]): 0
drug sensitivity score (Caco-2 [1]): 0.4
drug sensitivity score (HepG2 [2]): 3.5
drug sensitivity score (Vero E6 [3]): 0
cell viability (U2OS [11]; 1 nM): 96.5%
cell viability (U2OS [11]; 10 nM): 97.7%
cell viability (U2OS [11]; 100 nM): 101%
cell viability (U2OS [11]; 1000 nM): 102%
cell viability (U2OS [11]; 10000 nM): 97.7%
cell viability (Caco-2 [4]; 1 nM): 101%
cell viability (Caco-2 [4]; 10 nM): 107%
cell viability (Caco-2 [4]; 100 nM): 110%
cell viability (Caco-2 [4]; 1000 nM): 104%
cell viability (Caco-2 [4]; 10000 nM): 79.7%
cell viability (HepG2 [5]; 1 nM): 88.7%
cell viability (HepG2 [5]; 10 nM): 87.5%
cell viability (HepG2 [5]; 100 nM): 90.7%
cell viability (HepG2 [5]; 1000 nM): 98.2%
cell viability (HepG2 [5]; 10000 nM): 40.5%
cell viability (Vero E6 [6]; 1 nM): 104%
cell viability (Vero E6 [6]; 10 nM): 99.6%
cell viability (Vero E6 [6]; 100 nM): 101%
cell viability (Vero E6 [6]; 1000 nM): 95.7%
cell viability (Vero E6 [6]; 10000 nM): 96.9%
relative viability EC50 (U2OS [12]): > 10 µM
relative viability EC50 (Caco-2 [7]): > 10 µM
relative viability EC50 (HepG2 [8]): 2.94 µM
relative viability EC50 (Vero E6 [9]): > 10 µM
